Test results: US20240043394A1, “PROTEASOME ENHANCERS AND USES THEREOF” (Board of Trustees of Michigan State University, priority 2020, published 2024)

Tests used:
[1] = molecular target: T1, purified human 20S proteasome (Homo sapiens, UniProt P25787+P60900); assay: 20S proteasome small peptide assay, combination of all three fluorogenic substrates (CT-L/Casp-L/T-L); assay type: biochemical; design: key to 20S proteasome activation, classed in words: compounds that exhibit a maximum fold enhancement of <2 fold (i.e. <200%) at a concentration >20 μM were considered inactive; details: for Max Fold CT-L/Casp-L/T-L: maximum fold rate increase vs vehicle control; for Max Fold CT-L/Casp-L/T-L / AC200 CT-L/Casp-L/T-L: three probes combined; for AC200 CT-L/Casp-L/T-L: concentration needed to double (200%) the rate of substrate degradation vs vehicle; for 20S proteasome activation, classed in words: concentrations tested 1.25 μM to 80 μM
T1 construct: purchased Boston Biochem or Life Sensors E-360 or ps020
Procedure: (§1) In vitro testing, 20S activation: The 20S proteasome activity of the compounds was assessed by utilizing the standard fluorogenic 7-amino-methylcoumarin (AMC) conjugated small peptide substrates that correspond to each of the catalytic sites in the 20S proteasome: chymotryptic-like site (Suc-LLVY-AMC), caspase-like site (Z-LLE-AMC), and trypsin-like site (Boc-LRR-AMC). When the small peptide substrate is degraded by the 20S proteasome, the AMC fluorophore is released and quantified to measure the rate of proteolytic cleavage. The 20S proteasome activity of the small molecules was evaluated at varying concentrations to determine the concentration at which the rate of proteolysis was doubled (i.e. the concentration needed to induce 200% activity) compared to the vehicle control (hereafter named as AC200). Concentrations ranging from 1.25 μM to 80 μM of each of compound were added to wells that contained 0.5 nM of purified human proteasome.
(§2) The overall enhancement of the rate of proteolysis of the 20S proteasome by a small molecule was first evaluated by adding a combination of all three peptide substrates to the treated sample. The combination of all three substrates represents a more accurate measurement of proteolytic activity of the proteasome because the catalytic sites housed in the β ring of the 20S proteasome communicate through allosteric interactions. For example, when a protein substrate encounters the chymotryptic-like site, a conformational change will occur activating the caspase-like site.^61 The individual contribution of each of the three catalytic sites was subsequently evaluated by adding only the corresponding peptide probes to gain insight into the contribution of each site on the overall enhanced proteolytic activity.
(§3) The fluorescent output, due to release of the AMC fluorophore, was then converted to the fold increase compared to a vehicle control sample, and the AC200 was calculated. […] (Table 1).
(§4) AC200 represents the concentration needed to double (e.g., 200%) the rate of substrate degradation compared to vehicle control. Max fold is the maximum fold rate increase compared to vehicle control.
(§5) 20S Proteasome Small Peptide Assay: Activity assays were carried out in a black flat/clear bottom 96 well plate with a […] volume. Concentrations of the potential activators, varying from 80 μM to 1.25 μM, were added to the well that contained 1 nM 20S proteasome purchased from either Boston Biochem (catalog number E-360) or Life Sensors (catalog number ps020), in a […] buffer at a pH of 7.8. This solution was left to incubate at 37° C. for 15 minutes. For the assay for the overall proteasome activity, 13.33 μM of each small peptide substrate is added. The 96 well plate is then placed into a plate reader (SpectraMax M5e spectrometer) and the plate reader will take a fluorescent reading every 5 minutes for an hour at 37° C. The enzymatic activity of the 20S proteasome is quantified using the fluorescent output at 380-460 nm, which is converted to max fold increase over the untreated sample. The activity of the individual catalytic assays is identical to the assay that assesses the overall activity of the 20S proteasome except only one small peptide substrate is added. To evaluate the activity of the CT-L and the Casp-L sites, 10 μM of the Suc-LLVY-AMC (Boston Biochem S-280) and Z-LLE-AMC (Boston Biochem S-230) were added, respectively. To evaluate the activity of the T-L site, 20 μM of the Boc-LRR-AMC (Boston Biochem S-300) is added.

[2] = molecular target: T2, purified human 20S proteasome, CT-L site (Homo sapiens, UniProt P25787+P60900); assay: 20S proteasome small peptide assay, Suc-LLVY-AMC chymotryptic-like probe; assay type: biochemical; details: for AC200 CT-L site: concentration needed to double rate vs vehicle; for Max Fold CT-L site: maximum fold rate increase vs vehicle
T2 construct: purchased Boston Biochem or Life Sensors E-360 or ps020
Procedure: as §1, §2, §3, §4, §5

[3] = molecular target: T3, purified human 20S proteasome, Casp-L site (Homo sapiens, UniProt P25787+P60900); assay: 20S proteasome small peptide assay, Z-LLE-AMC caspase-like probe; assay type: biochemical; details: for AC200 Casp-L site: concentration needed to double rate vs vehicle; for Max Fold Casp-L site: maximum fold rate increase vs vehicle
T3 construct: purchased Boston Biochem or Life Sensors E-360 or ps020
Procedure: as §1, §2, §3, §4, §5

[4] = molecular target: T4, purified human 20S proteasome, T-L site (Homo sapiens, UniProt P25787+P60900); assay: 20S proteasome small peptide assay, Boc-LRR-AMC trypsin-like probe; assay type: biochemical; details: for AC200 T-L site: concentration needed to double rate vs vehicle; for Max Fold T-L site: maximum fold rate increase vs vehicle
T4 construct: purchased Boston Biochem or Life Sensors E-360 or ps020
Procedure: as §1, §2, §3, §4, §5

[5] = tested on: A53T mutant α-synuclein in Hek-293T cells; assay: In cell degradation of A53T α-synuclein (Western blot); assay type: cell-based; details: 10 μM, 10 hours
Procedure: Error bars denote standard deviation. One-way ANOVA statistical analysis was used to determine statistical significance (ns=not significant, *p<0.05, **p<0.01, ***p<0.001, ****p<0.0001) (FIG. 4B).
Cellular efficacy: The A53T mutation of α-synuclein has been linked to early on-set familial Parkinson's disease and appears to oligomerize faster than the wild-type protein. […] Hek-293T cells were transiently transfected with an inducible Tet-One A53T mutant α-synuclein. The cells were treated with 100 ng/mL of doxycycline to induce the production of the A53T mutant. […] The cells were then lysed and the remaining A53T α-synuclein was visualized and quantified via Western Blotting (FIG. 4, n=4).
In cell degradation of A53T α-synuclein: In a 6 well plate, Hek293T cells were grown to 80% confluency and then transfected using Xfect biopolymer transfection system with the Tet-One A53T α-synuclein plasmid. 24 hours post transfection, 100 ng/mL of doxycycline was added to induce A53T α-synuclein expression. After 24 hours of protein induction, media was removed that contained the doxycycline and was washed with PBS. Media with the desired drug concentration or DMSO was added and treated for 10 hours. After the cells were treated with the test compounds or DMSO, the cells were scraped and the pelleted (300 g for 5 minutes). The supernatant was taken off and the cell pellet was washed with ice cold PBS and then lysed with RIPA buffer with added protease inhibitors. The cell lysate was incubated for 20 minutes on ice. The lysate was centrifuged for 15 minutes at 500 g and then the supernatant was collected. Concentrated SDS loading buffer was added and the samples were boiled for 10 minutes. The samples were then resolved on a 4-20% Tris-glycine SDS-PAGE gel and immunoblotted with mouse monoclonal anti α-synuclein IgG (1:2000) and anti-mouse HRP-linked IgG (1:2000). Blots were developed with ECL Westem reagent and imaged with an Azure Biosystems 3000 imager.

SMILES	Max Fold CT-L/Casp-L/T-L [1] [fold]	AC200 CT-L site [2] [µM]	AC200 CT-L/Casp-L/T-L [1] [µM]	20S proteasome activation, classed in words [1]	AC200 Casp-L site [3] [µM]	AC200 T-L site [4] [µM]	Max Fold CT-L site [2] [fold]	Max Fold Casp-L site [3] [fold]	Max Fold T-L site [4] [fold]	decrease of accumulated A53T α-synuclein ([5]; normalized to vehicle) [%]	potency relative to compound 7 (times less potent) ([1]; 20S proteasome activation, compared with electron poor counterpart 7) [×]	decrease of A53T mutant α-synuclein, in words [5]
CN(C)C(=O)CCN1c2ccccc2Sc2ccc(Cl)cc21 [Compound 16, 3-(2-chloro-10H-phenothiazin-10-yl)-N,N-dimethylpropanamide]	–	>80	>80	inactive	>80	>80	–	–	–	–	–	–
CC(C)(C)OC(=O)c1ccc(CN2c3ccccc3Sc3ccc(Cl)cc32)cc1 [Compound 3, Tert-butyl 4-((2-chloro-10H-phenothiazin-10-yl)methyl)benzoate]	–	>80	>80	inactive	>80	>80	–	–	–	–	–	–
O=[N+]([O-])c1cccc(CN2c3ccccc3Sc3ccc(Cl)cc32)c1 [Compound 7, 2-Chloro-10-(3-nitrobenzyl)-10H-phenothiazine]	8	1.1	1.1	–	1.2	1.6	9	12	8	–	–	–
O=C(C=CN1c2ccccc2Sc2ccc(Cl)cc21)Nc1ccccc1 [Compound 17, 3-(2-chloro-10H-phenothiazin-10-yl)-N-phenylpropenamide]	2.5	>80	40	–	>80	80	–	–	2	–	–	–
CCOC(=O)[C@]1(c2ccccc2)N=C(c2ccc(OC)cc2)N(Cc2ccccc2)[C@@H]1c1ccc(NCc2ccccc2)cc1 [TCH-165, reference compound]	–	–	–	–	–	–	–	–	–	40	–	–
Nc1cccc(CN2c3ccccc3Sc3ccc(Cl)cc32)c1 [Compound 9, 3-((2-Chloro-10H-phenothiazin-10-yl)methyl)aniline]	8	6.5	3.6	–	3.8	9.2	9	10	10	–	3	–
Oc1ccc(CN2c3ccccc3Sc3ccc(Cl)cc32)cc1 [Compound 8, 4-((2-Chloro-10H-phenothiazin-10-yl)methyl)phenol]	–	>80	>80	inactive	>80	>80	–	–	–	–	–	no decrease

More lines, main results first:

Max Fold CT-L/Casp-L/T-L [1] [fold]	AC200 CT-L site [2] [µM]	AC200 CT-L/Casp-L/T-L [1] [µM]	20S proteasome activation, classed in words [1]	AC200 Casp-L site [3] [µM]	AC200 T-L site [4] [µM]	Max Fold CT-L site [2] [fold]	Max Fold Casp-L site [3] [fold]	Max Fold T-L site [4] [fold]	SMILES	decrease of accumulated A53T α-synuclein ([5]; normalized to vehicle) [%]	potency relative to compound 7 (times less potent) ([1]; 20S proteasome activation, compared with electron poor counterpart 7) [×]	decrease of A53T mutant α-synuclein, in words [5]
3	–	–	–	–	–	–	–	–	CN(C(=O)CCN1c2ccccc2Sc2ccc(Cl)cc21)c1ccc(F)cc1 [Compound 18, 3-(2-chloro-10H-phenothiazin-10-yl)-N-(4-fluorophenyl)-N-methylpropanamide]	–	–	–
–	>80	>80	inactive	>80	>80	–	–	–	N#CCCCCN1c2ccccc2Sc2ccc(Cl)cc21 [Compound 10, 5-(2-chloro-10H-phenothiazin-10-yl)pentanenitrile]	–	–	–
6	2.4	2.4	–	9.7	1.9	6	4	8	COC(=O)c1cccc(CN2c3ccccc3Sc3ccc(Cl)cc32)c1 [Compound 5, Methyl 3-((2-chloro-10H-phenothiazin-10-yl)methyl)benzoate]	–	–	–
–	>80	>80	inactive	>80	>80	–	–	–	CC(=O)Oc1ccc(CN2c3ccccc3Sc3ccc(Cl)cc32)cc1 [Compound 6, 4-((2-Chloro-10H-phenothiazin-10-yl)methyl)phenyl acetate]	–	–	–
–	>80	>80	inactive	>80	>80	–	–	–	NC(=O)CCCCN1c2ccccc2Sc2ccc(Cl)cc21 [Compound 11, 5-(2-Chloro-10H-phenothiazin-10-yl)pentanamide]	–	–	–
2	2.8	1.5	–	>80	3.1	3	–	2	Clc1ccc2c(c1)N(Cc1ccccc1)c1ccccc1S2 [Compound 1, 10-Benzyl-2-chloro-10H-phenothiazine]	–	–	–
4	>80	1.5	–	1.3	5.4	–	4	2	COc1cccc(CN2c3ccccc3Sc3ccc(Cl)cc32)c1 [Compound 4, 2-Chloro-10-(3-methoxybenzyl)-10H-phenothiazine]	–	–	–
–	>80	>80	inactive	>80	>80	–	–	–	NC(=O)C=CN1c2ccccc2Sc2ccc(Cl)cc21 [Compound 15, 3-(2-chloro-10H-phenothiazin-10-yl)propenamide]	–	–	–
